Results from US20220144850A1, “INDOLO HEPTAMYL OXIME ANALOGUE AS PARP INHIBITOR” (Chia Tai Tianqing Pharmaceutical Group Co., Ltd., priority 2019, published 2022).

Key:
[1] = Metabolic stability in liver microsomes, rat; assay type: in vitro ADME; conditions: Rat liver microsomes 0.5 mg/mL, 1 μM compound, NADPH, 37° C.
Experimental: (§1) Experimental Example 7. Metabolic Stability in Liver Microsomes
(§2) Experimental objective: to test the metabolic stability of test compounds in liver microsomes of three species.
(§3) Experimental method: 1 μM test compound and a microsome (0.5 mg/mL) were incubated at 37° C. in the presence of an NADPH regeneration system; positive controls were testosterone (3A4 substrate), propylamine propiophenone (2D6 substrate) and diclofenac (2C9 substrate), and also at 37° C., a positive control was incubated with a microsome (0.5 mg/mL) in the presence of an NADPH regenerating system; the reaction was stopped by direct mixing of the sample with cold acetonitrile containing an internal standard at various time points (0, 5, 10, 20, 30 and 60 min); the compound and microsome were incubated for 60 min in the absence of an NADPH regenerating system; one parallel (n=1) was set at each time point; the samples were analyzed by LC/MS/MS; the concentration of the compound was characterized by the ratio of the analyte peak area to the internal standard peak area.

[2] = Plasma protein binding rate, CD-1 mouse plasma (equilibrium dialysis); assay type: in vitro ADME; conditions: CD-1 mice plasma, dialysis 4 h at 37° C.
Experimental: Experimental Example 5: Study on Plasma Protein Binding Rate
The protein binding rates of the compounds disclosed herein in plasma of human, CD-1 mice and SD rats were determined. 796 μL of blank plasma was taken from human, CD-1 mice and SD rats, and added with 4 μL of test compound working solution (400. μM) or warfarin working solution (400 μM) to achieve a final concentration of 2 μM of both the test compound and the warfarin in the plasma sample. The samples were mixed well. The final concentration of organic phase DMSO was 0.5%; 50 μL of test compound and warfarin plasma sample was pipetted into a sample receiving plate (three parallels), and a corresponding volume of blank plasma or buffer was immediately added such that the final volume of each sample well was 100 μL. The volume ratio of plasma to dialysis buffer was 1:1, and 400 μL of stop solution was added to these samples, which were used as TO samples for determination of recovery rate and stability. The TO samples were stored at 2-8° C. for subsequent treatment with other dialyzed samples; 150 μL of the test compound and warfarin plasma sample was added to a drug delivery end of each dialysis well, and 150 μL of blank dialysis buffer was added to a corresponding receiving end of the dialysis well. The dialysis plate was then sealed with a gas permeable membrane and placed in a humid, 5% CO2 incubator and incubated at 37° C. for 4 h while shaking at about 100 rpm. After the dialysis was completed, 50 μL of the dialyzed buffer sample and dialyzed plasma sample were pipetted to a new sample receiving plate. A corresponding volume of corresponding blank plasma or buffer was added to the samples such that the final volume of each sample well was 100 μL, and the volume ratio of plasma to dialysis buffer was 1:1. All samples were subjected to LC/MS analysis after protein precipitation, and the protein binding rates and the recovery rates were calculated by the following formulas: protein unbinding rate (%)=100×drug concentration passing through dialysis membrane/drug concentration not passing through dialysate; protein binding rate (%)=100−protein unbinding rate (%); recovery rate (%)=100×(drug concentration passing through dialysis membrane+drug concentration not passing through dialysate)/total drug concentration before dialysis.

[3] = Metabolic stability in liver microsomes, human; assay type: in vitro ADME; conditions: Human liver microsomes 0.5 mg/mL, 1 μM compound, NADPH, 37° C.
Experimental: as §1, §2, §3

[4] = tested on: BRCA-wild type MDA-MB-231 cells; assay: Anti-proliferation experiment on MDA-MB-231 CTG cells; assay type: cell-based; conditions: Homo sapiens, MDA-MB-231, 72 h; 3 days incubation, CellTiter-Glo
Experimental: Experimental Example 3: Anti-Proliferation Experiment on MDA-MB-231 CTG Cells
Experimental materials: test compounds; R DMEM medium; fetal bovine serum; penicillin/streptomycin antibiotic; MDA-MB-231 cell line; Envision multi-label analyzer.
MDA-MB-231 cells were seeded in a white 96-well plate by adding 80 μL of cell suspension (containing 5000 MDA-MB-231 cells) to each well. The cell plate was incubated in a CO2 incubator overnight.
Eight concentration points were set for each compound, test compounds were serially 3-fold diluted to the 8th concentration with a multichannel pipette, i.e. from 2 mM to 920 nM, and a duplicate well experiment was performed. 78 μL of medium was added to a intermediate plate, 2 μL of each of serially diluted compounds was transferred to corresponding wells of the intermediate plate, and after mixing, the mixture was transferred to the cell plate at 20 μL per well. The cell plate was incubated in a CO2 incubator for 3 days. Another cell plate was provided for reading signal values on the day of compound addition and these signal values were used as Max values in data analysis. Promega CellTiter-Glo was added to this cell plate at 25 μL per well and the luminescence signals were stabilized by incubation for 10 min at room temperature. Readings were taken using a PerkinElmer Envision multi-marker analyzer.
Promega CellTiter-Glo was added to the cell plate at 25 μL per well and the luminescence signals were stabilized by incubation for 10 min at room temperature. Readings were taken using a PerkinElmer Envision multi-marker analyzer.
Data analysis: the original data was converted to inhibition using the equation (sample−Min)/(Max−Min)×100%, and the IC50 value was then curve fitted using four parameters (obtained from the “log(inhibitor) vs. response-variable slope” model in GraphPad Prism). Table 1 provides the inhibitory activity of the compounds disclosed herein against MDA-MB-231 cell proliferation.

Residual content after 60 min of incubation [1] | fraction unbound at 4 h, 2 μM [2] | Residual content after 60 min of incubation [3] | IC50 [4] | SMILES
60.6% | 0.037 | 60.4% | > 10 µM | O=C1NOCc2c(-c3ccc(C4CCCN4)cc3)[nH]c3cc(F)cc1c23 (single isomer, unassigned) [Example 24_A]
34.5% | 0.08 | 29.6% | > 10 µM | CC1(c2ccc(-c3[nH]c4cc(F)cc5c4c3CONC5=O)cc2F)CCCN1 (single isomer, unassigned) [Example 26_A]
55.4% | 0.208 | 53.7% | > 10 µM | CC1(c2ccc(-c3[nH]c4cccc5c4c3CONC5=O)cc2)CCCN1 (centres unmarked) [Example 6_A]
58.1% | 0.101 | 73.8% | > 10 µM | O=C1NOCc2c(-c3ccc(C4CCCN4)c(F)c3)[nH]c3cccc1c23 (centres unmarked) [Example 11_A]

SMILES | Residual content after 60 min of incubation [1] | fraction unbound at 4 h, 2 μM [2] | Residual content after 60 min of incubation [3] | IC50 [4]
CC1(c2ccc(-c3[nH]c4cc(F)cc5c4c3CONC5=O)cc2)CCCN1 (centres unmarked) [Example 25_A] | 31.8% | 0.104 | 35.9% | > 10 µM
